The text below walks through data of patent US7615353B1, “Tivozanib response prediction” (AVEO Pharmaceuticals, Inc., priority 2009, dated 2009).

SMILES strings stand for the structures.

In one assay the target is VEGF receptor 3 (Homo sapiens, UniProt P35916). The conditions noted are these: Nakamura et al., 2006; cited from earlier work.
The test system of another assay is preclinical models. The settings on record: Nakamura et al., 2006; cited from earlier work.
In assay [1] the test system is murine breast tumors (BH archive). The experiment in a line: tumor response to tivozanib, subcutaneously transplanted murine Her2-driven breast tumors (BH archive) in NCr nude mice. It counts as in vivo, mouse. An excerpt:
A population of more than 100 murine breast tumors (BH archive) was used to identify tumors that are sensitive to tivozanib (responders) and tumors that are resistant to tivozanib (non-responders). The BH archive was established by in vivo propagation and cryopreservation of primary tumor material from more than 100 spontaneous murine breast tumors derived from engineered chimeric mice that develop Her2-dependent, inducible spontaneous breast tumors. The mice were produced essentially as follows.
Tumor cells were isolated by physical disruption of the tumors using cell strainers. Typically 1×10^5 cells were mixed with matrigel (50:50 volume) and injected subcutaneously into female NCr nu/nu mice on upper dorsal region between the shoulder blades. When these tumors grew to approximately 500 mm^3, which typically required 2 to 4 weeks, they were collected for further propagation, drug response testing, and analysis. Analysis included microarray profiling, general histopathology, and IHC (CD31 for tumor vasculature, Ki67 for tumor cell proliferation).
Evaluation of tumor response to tivozanib was performed essentially as follows. Subcutaneously transplanted tumors were established by injecting physically disrupted tumor cells (mixed with Matrigel) into 7 week-old female NCr nude mice. When the tumors reached approximately 200-400 mm^3, 30 tumor-bearing mice were randomized into three groups. Group 1 received vehicle. Group 2 received tivozanib at 5 mg/kg daily by oral gavage. Group 3 received tivozanib at 20 mg/kg daily by oral gavage. Tumors were measured twice per week by a caliper, and tumor volume was calculated. At the end of the treatment, tumors were collected for histopathological analysis and IHC analysis.
Based on tumor growth inhibition and typical histopathological and IHC (CD31) characteristics for angiogenesis inhibition, responders and non-responders were identified. […]

For assay [2] the following is noted: 272-patient Phase 2 clinical trial; Bhargava et al., 2009; cited from earlier work.

VEGF receptor 3, sequence (P35916 25-1363): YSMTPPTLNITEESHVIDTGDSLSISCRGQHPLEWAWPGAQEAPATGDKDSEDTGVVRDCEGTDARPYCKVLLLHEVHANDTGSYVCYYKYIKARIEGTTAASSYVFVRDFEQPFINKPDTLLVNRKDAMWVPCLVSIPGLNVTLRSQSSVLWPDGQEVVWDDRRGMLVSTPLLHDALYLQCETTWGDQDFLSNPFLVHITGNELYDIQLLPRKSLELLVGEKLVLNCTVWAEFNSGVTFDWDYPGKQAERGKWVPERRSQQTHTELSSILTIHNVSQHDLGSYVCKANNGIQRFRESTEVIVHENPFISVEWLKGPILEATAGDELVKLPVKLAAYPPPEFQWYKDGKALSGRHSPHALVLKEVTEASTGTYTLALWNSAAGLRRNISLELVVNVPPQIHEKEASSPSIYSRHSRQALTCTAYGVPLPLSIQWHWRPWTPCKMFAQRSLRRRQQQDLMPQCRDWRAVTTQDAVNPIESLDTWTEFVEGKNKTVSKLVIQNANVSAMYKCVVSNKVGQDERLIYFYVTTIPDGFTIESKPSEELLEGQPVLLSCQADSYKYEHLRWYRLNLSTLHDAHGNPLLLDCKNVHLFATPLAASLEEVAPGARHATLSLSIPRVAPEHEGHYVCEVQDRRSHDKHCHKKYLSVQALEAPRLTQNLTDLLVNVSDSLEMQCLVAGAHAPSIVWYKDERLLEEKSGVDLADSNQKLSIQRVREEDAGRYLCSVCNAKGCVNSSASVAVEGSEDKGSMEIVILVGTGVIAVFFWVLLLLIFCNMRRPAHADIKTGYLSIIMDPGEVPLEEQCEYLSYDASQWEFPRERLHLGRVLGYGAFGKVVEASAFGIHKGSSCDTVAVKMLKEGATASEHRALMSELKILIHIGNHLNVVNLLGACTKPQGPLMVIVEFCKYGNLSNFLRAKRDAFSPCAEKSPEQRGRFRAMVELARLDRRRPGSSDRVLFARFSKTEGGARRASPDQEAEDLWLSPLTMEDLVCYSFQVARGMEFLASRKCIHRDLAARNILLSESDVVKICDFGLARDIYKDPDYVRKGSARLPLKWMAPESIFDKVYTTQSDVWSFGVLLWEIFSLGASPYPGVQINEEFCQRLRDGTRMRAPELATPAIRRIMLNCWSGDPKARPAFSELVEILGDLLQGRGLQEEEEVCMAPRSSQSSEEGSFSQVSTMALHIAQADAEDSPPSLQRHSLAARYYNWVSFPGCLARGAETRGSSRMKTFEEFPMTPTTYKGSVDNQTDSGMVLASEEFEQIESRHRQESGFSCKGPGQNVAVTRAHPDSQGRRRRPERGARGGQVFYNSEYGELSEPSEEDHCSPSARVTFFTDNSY

For the compound `COc1cc2nccc(Oc3ccc(NC(=O)Nc4cc(C)on4)c(Cl)c3)c2cc1OC` [Tivozanib, N-{2-chloro-4-[(6,7-dimethoxy-4-quinolyl)oxy]-phenyl}-N′-(5-methyl-3-isoxazolyl)urea], the inhibitory activity entry on VEGF receptor 3 was “picomolar”. Also, the antitumor activity result in the assay with preclinical models was “exhibits antitumor activity”. In addition, in assay [1] (5 or 20 mg/kg daily by oral gavage, tumor growth inhibition, histopathology, IHC (CD31)), the “variation in response among tumors” value is “significant tumor-to-tumor variation in response”. Moreover, in assay [1] (responder tumors, 5 mg/kg daily by oral gavage), the “tumor progression by caliper measurement” value was “no tumor progression”. The “tumor killing (by histology)” value in assay [1] (responder tumors, 5 mg/kg daily by oral gavage, except the peripheries) is recorded as “close to complete tumor killing”. Further, in assay [2], the interim results was “positive interim results”.
